Laboratory results: PubChem BioAssay (NCI)
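Test compounds were applied to cells in 96-well plates for 48 hours at 5 doses. TGI marks complete inhibition of growth.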

What was measured:
Assay in all cases: NCI anticancer screen, dose series, 48 h
786-0 renal = system: 786-0 renal
A498 renal = system: A498 renal
A549 NSCLC = system: A549 NSCLC
ACHN renal = system: ACHN renal
BT-549 breast = system: BT-549 breast
CAKI-1 renal = system: CAKI-1 renal
CCRF-CEM leukemia = system: CCRF-CEM leukemia
COLO 205 colon = system: COLO 205 colon
DU-145 prostate = system: DU-145 prostate
EKVX NSCLC = system: EKVX NSCLC
HCT-116 colon = system: HCT-116 colon
HCT-15 colon = system: HCT-15 colon
HL-60(TB) leukemia = system: HL-60(TB) leukemia
HOP-62 NSCLC = system: HOP-62 NSCLC
HOP-92 NSCLC = system: HOP-92 NSCLC
HS 578T breast = system: HS 578T breast
HT29 colon = system: HT29 colon
IGROV1 ovarian = system: IGROV1 ovarian
K-562 leukemia = system: K-562 leukemia
KM12 colon = system: KM12 colon
LOX IMVI melanoma = system: LOX IMVI melanoma
M14 melanoma = system: M14 melanoma
MALME-3M melanoma = system: MALME-3M melanoma
MCF7 breast = system: MCF7 breast
MDA-MB-231 breast = system: MDA-MB-231 breast
MDA-MB-435 = system: MDA-MB-435
MDA-N = system: MDA-N
MOLT-4 leukemia = system: MOLT-4 leukemia
NCI-H226 lung = system: NCI-H226 lung
NCI-H460 lung = system: NCI-H460 lung
NCI-H522 lung = system: NCI-H522 lung
NCI/ADR-RES ovarian = system: NCI/ADR-RES ovarian
OVCAR-3 ovarian = system: OVCAR-3 ovarian
OVCAR-4 ovarian = system: OVCAR-4 ovarian
OVCAR-5 ovarian = system: OVCAR-5 ovarian
OVCAR-8 ovarian = system: OVCAR-8 ovarian
PC-3 prostate = system: PC-3 prostate
RPMI-8226 leukemia = system: RPMI-8226 leukemia
RXF 393 renal = system: RXF 393 renal
SF-268 CNS = system: SF-268 CNS
SF-295 CNS = system: SF-295 CNS
SF-539 CNS = system: SF-539 CNS
SK-MEL-2 melanoma = system: SK-MEL-2 melanoma
SK-MEL-28 melanoma = system: SK-MEL-28 melanoma
SK-MEL-5 melanoma = system: SK-MEL-5 melanoma
SK-OV-3 ovarian = system: SK-OV-3 ovarian
SN12C renal = system: SN12C renal
SNB-19 CNS = system: SNB-19 CNS
SNB-75 CNS = system: SNB-75 CNS
SR leukemia = system: SR leukemia
SW-620 colon = system: SW-620 colon
T-47D breast = system: T-47D breast
TK-10 renal = system: TK-10 renal
U251 CNS = system: U251 CNS
UACC-257 melanoma = system: UACC-257 melanoma
UACC-62 melanoma = system: UACC-62 melanoma
UO-31 renal = system: UO-31 renal
HCC-2998 colon = system: HCC-2998 colon
NCI-H23 lung = system: NCI-H23 lung

CN(C)CCCN1c2ccccc2Sc2cnccc21
TGI (786-0 renal): > 100 µM | TGI (A498 renal): > 100 µM | TGI (A549 NSCLC): > 100 µM | TGI (ACHN renal): > 100 µM | TGI (BT-549 breast): > 100 µM | TGI (CAKI-1 renal): > 100 µM | TGI (CCRF-CEM leukemia): > 100 µM | TGI (COLO 205 colon): > 100 µM | TGI (DU-145 prostate): > 100 µM | TGI (EKVX NSCLC): > 100 µM | TGI (HCT-116 colon): > 100 µM | TGI (HCT-15 colon): > 100 µM | TGI (HL-60(TB) leukemia): > 100 µM | TGI (HOP-62 NSCLC): > 100 µM | TGI (HOP-92 NSCLC): > 100 µM | TGI (HS 578T breast): > 100 µM | TGI (HT29 colon): > 100 µM | TGI (IGROV1 ovarian): > 100 µM | TGI (K-562 leukemia): > 100 µM | TGI (KM12 colon): > 100 µM | TGI (LOX IMVI melanoma): > 100 µM | TGI (M14 melanoma): > 100 µM | TGI (MALME-3M melanoma): > 100 µM | TGI (MCF7 breast): > 100 µM | TGI (MDA-MB-231 breast): > 100 µM | TGI (MDA-MB-435): > 100 µM | TGI (MDA-N): > 100 µM | TGI (MOLT-4 leukemia): > 100 µM | TGI (NCI-H226 lung): > 100 µM | TGI (NCI-H460 lung): > 100 µM | TGI (NCI-H522 lung): > 100 µM | TGI (NCI/ADR-RES ovarian): > 100 µM | TGI (OVCAR-3 ovarian): > 100 µM | TGI (OVCAR-4 ovarian): > 100 µM | TGI (OVCAR-5 ovarian): > 100 µM | TGI (OVCAR-8 ovarian): > 100 µM | TGI (PC-3 prostate): > 100 µM | TGI (RPMI-8226 leukemia): > 100 µM | TGI (RXF 393 renal): > 100 µM | TGI (SF-268 CNS): > 100 µM | TGI (SF-295 CNS): > 100 µM | TGI (SF-539 CNS): > 100 µM | TGI (SK-MEL-2 melanoma): 94 µM | TGI (SK-MEL-28 melanoma): > 100 µM | TGI (SK-MEL-5 melanoma): > 100 µM | TGI (SK-OV-3 ovarian): > 100 µM | TGI (SN12C renal): > 100 µM | TGI (SNB-19 CNS): > 100 µM | TGI (SNB-75 CNS): > 100 µM | TGI (SR leukemia): > 100 µM | TGI (SW-620 colon): > 100 µM | TGI (T-47D breast): > 100 µM | TGI (TK-10 renal): > 100 µM | TGI (U251 CNS): > 100 µM | TGI (UACC-257 melanoma): 49.5 µM | TGI (UACC-62 melanoma): > 100 µM | TGI (UO-31 renal): > 100 µM

Cc1cc(C)n(C2OC(CO)C(O)C(O)C2O)c(=S)c1C#N (stereo not drawn)
TGI (786-0 renal): > 100 µM | TGI (A498 renal): > 100 µM | TGI (A549 NSCLC): > 100 µM | TGI (ACHN renal): > 100 µM | TGI (BT-549 breast): > 100 µM | TGI (CAKI-1 renal): > 100 µM | TGI (CCRF-CEM leukemia): > 100 µM | TGI (COLO 205 colon): > 100 µM | TGI (DU-145 prostate): > 100 µM | TGI (HCC-2998 colon): > 100 µM | TGI (HCT-116 colon): > 100 µM | TGI (HCT-15 colon): > 100 µM | TGI (HL-60(TB) leukemia): > 100 µM | TGI (HOP-62 NSCLC): > 100 µM | TGI (HOP-92 NSCLC): > 100 µM | TGI (HS 578T breast): > 100 µM | TGI (HT29 colon): > 100 µM | TGI (IGROV1 ovarian): > 100 µM | TGI (KM12 colon): > 100 µM | TGI (LOX IMVI melanoma): > 100 µM | TGI (M14 melanoma): > 100 µM | TGI (MALME-3M melanoma): > 100 µM | TGI (MCF7 breast): > 100 µM | TGI (MDA-MB-231 breast): > 100 µM | TGI (MDA-MB-435): > 100 µM | TGI (MDA-N): > 100 µM | TGI (MOLT-4 leukemia): > 100 µM | TGI (NCI-H226 lung): > 100 µM | TGI (NCI-H23 lung): > 100 µM | TGI (NCI-H460 lung): > 100 µM | TGI (NCI-H522 lung): > 100 µM | TGI (NCI/ADR-RES ovarian): > 100 µM | TGI (OVCAR-3 ovarian): > 100 µM | TGI (OVCAR-4 ovarian): > 100 µM | TGI (OVCAR-5 ovarian): > 100 µM | TGI (OVCAR-8 ovarian): > 100 µM | TGI (PC-3 prostate): > 100 µM | TGI (RPMI-8226 leukemia): > 100 µM | TGI (RXF 393 renal): > 100 µM | TGI (SF-268 CNS): > 100 µM | TGI (SF-295 CNS): > 100 µM | TGI (SF-539 CNS): > 100 µM | TGI (SK-MEL-2 melanoma): > 100 µM | TGI (SK-MEL-28 melanoma): > 100 µM | TGI (SK-MEL-5 melanoma): > 100 µM | TGI (SN12C renal): > 100 µM | TGI (SNB-19 CNS): > 100 µM | TGI (SNB-75 CNS): > 100 µM | TGI (SR leukemia): > 100 µM | TGI (SW-620 colon): > 100 µM | TGI (T-47D breast): > 100 µM | TGI (TK-10 renal): > 100 µM | TGI (U251 CNS): > 100 µM | TGI (UACC-257 melanoma): > 100 µM | TGI (UACC-62 melanoma): > 100 µM | TGI (UO-31 renal): > 100 µM
